# Test results published in patent US4735949A, “Disubstituted-7-pyrrolidinonaphthyridine antibacterial agents” (Warner-Lambert Company, priority 1987, dated 1988).
# Read-outs that look alike come from different tables or passages of the source.
# Assays:
# Assay in all cases: in vitro antibacterial activity, microtitration dilution method
# Type in all cases: cell-based
# Proteus rettgeri M 1771 = details: Providencia rettgeri
# Source text: (§1) Agents & Chemoth., 6, 124 (1974), which is incorporated herein by reference.
# [1] = tested on: Enterobacter cloacae MA 2646
# Source text: as §1
# [2] = tested on: Klebsiella pneumoniae MGH-2
# Source text: as §1
# Escherichia coli Vogel = details: read-out: Minimal Inhibitory Concentration MIC
# Source text: as §1
# [3] = tested on: Streptococcus pneumoniae SV-1; details: SV1; Streptococcus pneumoniae SV-1, in vitro; read-out: Minimal Inhibitory Concentration MIC
# Source text: (§2) The compounds of the invention display antibacterial activity when tested by the microtitration dilution method as described in Heifetz, et al, Antimicr. Agents & Chemoth., 6, 124 (1974), which is incorporated herein by reference.
# (§3) By use of the above referenced method, the following minimum inhibitory concentration values (MICs in μg/ml) were obtained for representative compounds of the invention.
# [4] = tested on: Staphylococcus aureus UC-76; details: UC76; Staphylococcus aureus UC-76, in vitro; read-out: Minimal Inhibitory Concentration MIC
# Source text: as §2, §3
# [5] = tested on: Staphylococcus aureus H 228; details: H228; Staphylococcus aureus H 228, in vitro; read-out: Minimal Inhibitory Concentration MIC
# Source text: as §2, §3
# [6] = tested on: Streptococcus pyogenes C-203; details: C203; Streptococcus pyogenes C-203, in vitro; read-out: Minimal Inhibitory Concentration MIC
# Source text: as §2, §3
# [7] = tested on: Streptococcus faecalis MGH-2; details: Enterococcus faecalis, MGH2; Streptococcus faecalis MGH-2, in vitro; read-out: Minimal Inhibitory Concentration MIC
# Source text: as §2, §3
# [8] = tested on: Pseudomonas aeruginosa UI-18; details: UI18; Pseudomonas aeruginosa UI-18, in vitro; read-out: Minimal Inhibitory Concentration MIC
# Source text: as §1
# [9] = M1771, read-out: Minimal Inhibitory Concentration MIC
# [10] = Klebsiella pneumoniae, MGH2, read-out: Minimal Inhibitory Concentration MIC
# [11] = M1771, Proteus rettgeri M 1771, in vitro, read-out: Minimal Inhibitory Concentration MIC
# [12] = MA2646, Enterobacter cloacae MA 2646, in vitro, read-out: Minimal Inhibitory Concentration MIC
"MIC ([2]; MGH2, Klebsiella pneumoniae MGH-2, in vitro, read-out: Minimal Inhibitory Concentration MIC)",SMILES,MIC (Proteus rettgeri M 1771; [9]),"MIC ([1]; Enterobacter cloacae, MA2646, read-out: Minimal Inhibitory Concentration MIC)","MIC [2, 10]",MIC (Escherichia coli Vogel),MIC [3],MIC [4],MIC [5],MIC [6],MIC [7],MIC (Proteus rettgeri M 1771; [11]),"MIC [1, 12]",MIC [8]
–,"NC1(c2ccccc2)CCN(c2c(F)cc3c(=O)c(C(=O)O)cn(C4CC4)c3c2F)C1 (centres unmarked) [Example 1, 7-[(3-Amino-3-phenyl)-1-pyrrolidinyl]-1-cyclopropyl-6,8-difluoro-1,4-dihydro-4-oxo-3-quinolinecarboxylic acid]",0.1 µg/mL,0.05 µg/mL,0.1 µg/mL,0.05 µg/mL,0.025 µg/mL,0.006 µg/mL,0.006 µg/mL,0.05 µg/mL,0.05 µg/mL,–,–,–
–,NCC1CN(c2c(F)cc3c(=O)c(C(=O)O)cn(C4CC4)c3c2F)CC1c1ccccc1 (centres unmarked) [Example 2],–,–,0.1 µg/mL,–,0.006 µg/mL,0.006 µg/mL,0.013 µg/mL,0.013 µg/mL,0.013 µg/mL,0.4 µg/mL,0.2 µg/mL,1.6 µg/mL
0.2 µg/mL,"NC1CN(c2c(F)cc3c(=O)c(C(=O)O)cn(C4CC4)c3c2F)CC1c1ccccc1 (centres unmarked) [Example 3, 7-[(3-Amino-4-phenyl)-1-pyrrolidinyl]-1-cyclopropyl-6,8-difluoro-1,4-dihydro-4-oxo-3-quinolinecarboxylic acid]",–,–,–,0.1 µg/mL,0.1 µg/mL,0.025 µg/mL,0.05 µg/mL,0.1 µg/mL,0.1 µg/mL,0.4 µg/mL,0.2 µg/mL,1.6 µg/mL
–,"O=C(O)c1cn(C2CC2)c2c(F)c(N3CCC(O)(c4ccccc4)C3)c(F)cc2c1=O (centres unmarked) [Example 4, 1-Cyclopropyl-6,8-difluoro-1,4-dihydro-7-[(3-hydroxy-3-phenyl)1-pyrrolidinyl]-4-oxo-3-quinolinecarboxylic acid]",0.1 µg/mL,–,0.1 µg/mL,–,0.013 µg/mL,0.003 µg/mL,0.003 µg/mL,0.05 µg/mL,0.025 µg/mL,–,–,–
